Where two headings read alike, the source gives them in different places.
Type: in vivo, women
Description: The efficacy of the regimen according to this invention was compared with the known regimen administering 0.75-0.75 mg of levonorgestrel 12 hours apart in the following trials.
In a double-blind, randomized, multicentre, multinational trial 1,356 women received 0.75-0.75 mg of levonorgestrel at 12-hour interval in the traditional way, while 1,356 received in a single dose 1.5 ± 0.2 mg of levonorgestrel within 72 hours of the unprotected coitus.
The incidence of vomiting was 1.4% in both groups. As the new regimen also has the advantageous properties resulting from the lack of the estrogen component, the incidence of nausea, feeling of sickness, vomiting was apparently low.
The incidence of menstrual disorders was not increased either by the single administration of 1.5 mg dose of levonorgestrel compared to the administration of two 0.75 mg doses. The incidence of menstrual disorders was 30.9% in both groups.

For `C#C[C@]1(O)CC[C@H]2[C@@H]3CCC4=CC(=O)CC[C@@H]4[C@H]3CC[C@@]21CC` [levonorgestrel], the “Prevented fraction (percent of conception which otherwise might happen prevented by the treatment)” value (0.75-0.75 mg at 12-hour interval (traditional way)) was 77.3%, the conception rate (0.75-0.75 mg at 12-hour interval (traditional way), within 72 hours of unprotected coitus, 1,356 women) was 1.77% and the “incidence of other side-effects (diarrhoea, fatigue, dizziness, headache, breast tenderness, lower abdominal pain)” value (in vivo) was “not differing significantly”. For the same molecule, the “Prevented fraction (percent of conception which otherwise might happen prevented by the treatment)” value (single dose 1.5 ± 0.2 mg) was 81.9% and the conception rate (single dose 1.5 ± 0.2 mg within 72 hours of unprotected coitus, 1,356 women) was 1.47%.
